One assay has as its target EGFR wildtype (WT) (Homo sapiens, UniProt P00533). In words: Biochemical EGFR kinase inhibition assay (Lance Ultra TR-FRET), wildtype. The method, boiled down: (§1)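 In this biochemical assay, phosphorylation after a one-hour room-temperature reaction was detected with europium-labelled anti-phosphopeptide antibody at 2 nM final concentration.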
Another assay addresses EGFR Del19/C797S (Homo sapiens, UniProt P00533, C797S/DEL746-750). In words: Biochemical EGFR kinase inhibition assay (Lance Ultra TR-FRET), double mutant del19/C797S. The gist of the method: as §1
(In TR-FRET formats the signal depends on donor and acceptor labels being close together.)

For the next assay, the target named is EGFR L858R/C797S (Homo sapiens, UniProt P00533, C797S/L858R). In words: Biochemical EGFR kinase inhibition assay (Lance Ultra TR-FRET), double mutant L858R/C797S. The gist of the method: as §1
A further assay addresses EGFR Del19/T790M/C797S (Homo sapiens, UniProt P00533, C797S/DEL746-750/T790M). In words: Biochemical EGFR kinase inhibition assay (Lance Ultra TR-FRET), triple mutant del19/T790M/C797S. The gist of the method: as §1
The next assay deals with EGFR L858R/T790M/C797S (Homo sapiens, UniProt P00533, C797S/L858R/T790M). Nature of the assay: Biochemical EGFR kinase inhibition assay (Lance Ultra TR-FRET), triple mutant L858R/T790M/C797S. The gist of the method: as §1
The mark [1] stands for this setting: IC50 Del19/C797S (nM), 100 μM ATP.
Where [2] appears, read: IC50 L858R/C797S (nM), 100 μM ATP.
Setting [3] is: IC50 Del19/T790M/C797S (nM), 100 μM ATP.
[4] abbreviates: IC50 L858R/T790M/C797S (nM), 100 μM ATP.
Setting [5] is: Km ATP, read-out: IC50 WT (nM), Km ATP.
[6] abbreviates: Km ATP, read-out: IC50 Del19/C797S (nM), Km ATP.
The mark [7] stands for this setting: Km ATP, read-out: IC50 L858R/C797S (nM), Km ATP.
Where [8] appears, read: Km ATP, read-out: IC50 Del19/T790M/C797S (nM), Km ATP.
Setting [9] is: Km ATP, read-out: IC50 L858R/T790M/C797S (nM), Km ATP.

These results are taken from patent US11981658B2, “Substituted aminopyridine compounds as EGFR inhibitors” (YUHAN CORPORATION, priority 2021, dated 2024).

Read-outs that look alike come from different tables or passages of the source.

Chain of EGFR L858R/C797S (P00533 25-1210 C797S/L858R): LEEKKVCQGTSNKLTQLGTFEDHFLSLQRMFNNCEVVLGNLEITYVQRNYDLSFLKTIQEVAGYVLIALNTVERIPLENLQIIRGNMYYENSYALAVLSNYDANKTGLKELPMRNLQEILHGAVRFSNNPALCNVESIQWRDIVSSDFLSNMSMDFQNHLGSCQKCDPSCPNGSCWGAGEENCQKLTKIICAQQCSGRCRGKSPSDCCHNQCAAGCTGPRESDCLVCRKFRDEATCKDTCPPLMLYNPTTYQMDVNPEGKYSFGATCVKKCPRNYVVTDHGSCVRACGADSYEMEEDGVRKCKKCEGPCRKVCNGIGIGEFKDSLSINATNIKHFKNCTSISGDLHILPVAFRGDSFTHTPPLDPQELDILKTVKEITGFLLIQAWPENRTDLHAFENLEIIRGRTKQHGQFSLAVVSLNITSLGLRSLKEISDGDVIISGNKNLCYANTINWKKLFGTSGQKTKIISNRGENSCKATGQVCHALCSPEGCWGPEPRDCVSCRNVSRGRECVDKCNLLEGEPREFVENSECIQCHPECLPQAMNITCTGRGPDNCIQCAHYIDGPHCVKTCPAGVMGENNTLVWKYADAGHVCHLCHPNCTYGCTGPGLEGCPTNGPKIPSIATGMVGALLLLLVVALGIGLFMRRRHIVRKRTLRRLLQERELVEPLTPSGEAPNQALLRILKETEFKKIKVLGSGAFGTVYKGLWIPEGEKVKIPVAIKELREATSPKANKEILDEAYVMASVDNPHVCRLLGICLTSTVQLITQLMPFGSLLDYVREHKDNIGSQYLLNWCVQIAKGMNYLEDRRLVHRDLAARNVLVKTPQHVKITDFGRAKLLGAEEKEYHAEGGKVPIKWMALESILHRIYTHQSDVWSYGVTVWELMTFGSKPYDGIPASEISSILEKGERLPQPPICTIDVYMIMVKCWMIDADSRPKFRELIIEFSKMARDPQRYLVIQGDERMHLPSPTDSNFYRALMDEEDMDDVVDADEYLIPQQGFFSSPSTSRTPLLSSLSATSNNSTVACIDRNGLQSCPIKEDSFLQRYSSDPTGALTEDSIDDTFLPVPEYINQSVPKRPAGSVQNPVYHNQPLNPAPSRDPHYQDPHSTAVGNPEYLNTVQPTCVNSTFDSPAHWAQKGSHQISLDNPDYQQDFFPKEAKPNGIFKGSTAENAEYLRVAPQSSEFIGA
Chain of EGFR wildtype (WT) (P00533 25-1210): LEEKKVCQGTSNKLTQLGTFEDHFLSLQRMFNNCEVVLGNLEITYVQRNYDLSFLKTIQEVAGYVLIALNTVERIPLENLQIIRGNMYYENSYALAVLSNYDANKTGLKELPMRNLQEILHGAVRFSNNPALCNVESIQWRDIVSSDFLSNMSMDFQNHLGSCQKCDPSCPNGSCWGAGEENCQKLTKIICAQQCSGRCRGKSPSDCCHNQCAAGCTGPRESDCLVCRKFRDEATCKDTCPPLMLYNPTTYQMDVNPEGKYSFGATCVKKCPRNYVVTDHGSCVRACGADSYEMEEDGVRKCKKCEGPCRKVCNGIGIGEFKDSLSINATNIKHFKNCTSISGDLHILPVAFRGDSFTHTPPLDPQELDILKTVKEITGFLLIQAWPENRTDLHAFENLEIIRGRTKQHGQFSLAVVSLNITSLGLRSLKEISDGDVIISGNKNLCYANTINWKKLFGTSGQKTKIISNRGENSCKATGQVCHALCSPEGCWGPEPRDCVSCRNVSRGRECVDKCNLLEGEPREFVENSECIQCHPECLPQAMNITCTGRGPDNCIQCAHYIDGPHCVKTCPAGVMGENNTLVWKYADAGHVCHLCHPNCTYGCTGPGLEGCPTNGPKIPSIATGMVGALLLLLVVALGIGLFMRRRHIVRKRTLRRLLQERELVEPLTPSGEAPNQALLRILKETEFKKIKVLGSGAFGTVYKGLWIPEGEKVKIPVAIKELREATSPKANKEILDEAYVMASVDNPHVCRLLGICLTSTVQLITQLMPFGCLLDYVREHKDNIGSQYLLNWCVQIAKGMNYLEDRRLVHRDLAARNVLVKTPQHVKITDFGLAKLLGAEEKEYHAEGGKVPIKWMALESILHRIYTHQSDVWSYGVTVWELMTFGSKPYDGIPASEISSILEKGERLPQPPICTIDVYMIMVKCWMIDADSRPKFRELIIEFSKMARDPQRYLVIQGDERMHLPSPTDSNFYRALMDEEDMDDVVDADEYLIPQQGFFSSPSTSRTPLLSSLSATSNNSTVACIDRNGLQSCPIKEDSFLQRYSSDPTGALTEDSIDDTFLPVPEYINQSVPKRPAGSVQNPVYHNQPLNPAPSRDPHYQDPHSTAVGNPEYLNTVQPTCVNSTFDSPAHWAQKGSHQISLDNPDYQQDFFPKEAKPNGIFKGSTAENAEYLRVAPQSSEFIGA
Chain of EGFR L858R/T790M/C797S (P00533 25-1210 T790M/C797S/L858R): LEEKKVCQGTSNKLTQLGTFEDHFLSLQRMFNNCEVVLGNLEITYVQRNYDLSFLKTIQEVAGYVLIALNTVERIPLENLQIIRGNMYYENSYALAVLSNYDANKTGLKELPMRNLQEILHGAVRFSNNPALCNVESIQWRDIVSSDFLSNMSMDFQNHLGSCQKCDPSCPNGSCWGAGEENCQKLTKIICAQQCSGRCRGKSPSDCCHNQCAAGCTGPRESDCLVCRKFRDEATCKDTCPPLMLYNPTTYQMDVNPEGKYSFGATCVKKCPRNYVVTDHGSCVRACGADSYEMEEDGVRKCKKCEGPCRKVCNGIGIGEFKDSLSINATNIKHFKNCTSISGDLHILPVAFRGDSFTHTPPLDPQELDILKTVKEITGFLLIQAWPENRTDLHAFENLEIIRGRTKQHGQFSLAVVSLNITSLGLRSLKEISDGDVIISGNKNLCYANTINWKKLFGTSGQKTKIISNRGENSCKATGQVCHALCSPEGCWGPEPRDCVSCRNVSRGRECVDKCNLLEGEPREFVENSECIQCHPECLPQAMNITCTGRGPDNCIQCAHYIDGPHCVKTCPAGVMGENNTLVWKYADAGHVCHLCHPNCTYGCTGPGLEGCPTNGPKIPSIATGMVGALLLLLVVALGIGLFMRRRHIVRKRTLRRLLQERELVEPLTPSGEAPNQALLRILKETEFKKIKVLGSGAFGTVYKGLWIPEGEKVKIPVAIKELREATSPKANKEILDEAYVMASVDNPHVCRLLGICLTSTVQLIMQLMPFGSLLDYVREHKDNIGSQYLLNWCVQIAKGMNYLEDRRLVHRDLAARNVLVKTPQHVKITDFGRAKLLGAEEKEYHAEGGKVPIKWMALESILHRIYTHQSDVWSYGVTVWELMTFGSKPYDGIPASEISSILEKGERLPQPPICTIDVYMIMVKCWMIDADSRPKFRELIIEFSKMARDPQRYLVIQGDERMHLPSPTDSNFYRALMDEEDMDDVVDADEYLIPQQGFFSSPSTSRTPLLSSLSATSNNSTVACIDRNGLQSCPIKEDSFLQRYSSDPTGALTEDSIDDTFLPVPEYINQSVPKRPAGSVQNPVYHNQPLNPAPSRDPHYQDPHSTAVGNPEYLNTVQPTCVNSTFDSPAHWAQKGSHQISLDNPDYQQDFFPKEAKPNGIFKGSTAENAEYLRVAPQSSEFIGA
Chain of EGFR Del19/C797S (P00533 with tags, fused parts or gaps DEL746-750/C797S): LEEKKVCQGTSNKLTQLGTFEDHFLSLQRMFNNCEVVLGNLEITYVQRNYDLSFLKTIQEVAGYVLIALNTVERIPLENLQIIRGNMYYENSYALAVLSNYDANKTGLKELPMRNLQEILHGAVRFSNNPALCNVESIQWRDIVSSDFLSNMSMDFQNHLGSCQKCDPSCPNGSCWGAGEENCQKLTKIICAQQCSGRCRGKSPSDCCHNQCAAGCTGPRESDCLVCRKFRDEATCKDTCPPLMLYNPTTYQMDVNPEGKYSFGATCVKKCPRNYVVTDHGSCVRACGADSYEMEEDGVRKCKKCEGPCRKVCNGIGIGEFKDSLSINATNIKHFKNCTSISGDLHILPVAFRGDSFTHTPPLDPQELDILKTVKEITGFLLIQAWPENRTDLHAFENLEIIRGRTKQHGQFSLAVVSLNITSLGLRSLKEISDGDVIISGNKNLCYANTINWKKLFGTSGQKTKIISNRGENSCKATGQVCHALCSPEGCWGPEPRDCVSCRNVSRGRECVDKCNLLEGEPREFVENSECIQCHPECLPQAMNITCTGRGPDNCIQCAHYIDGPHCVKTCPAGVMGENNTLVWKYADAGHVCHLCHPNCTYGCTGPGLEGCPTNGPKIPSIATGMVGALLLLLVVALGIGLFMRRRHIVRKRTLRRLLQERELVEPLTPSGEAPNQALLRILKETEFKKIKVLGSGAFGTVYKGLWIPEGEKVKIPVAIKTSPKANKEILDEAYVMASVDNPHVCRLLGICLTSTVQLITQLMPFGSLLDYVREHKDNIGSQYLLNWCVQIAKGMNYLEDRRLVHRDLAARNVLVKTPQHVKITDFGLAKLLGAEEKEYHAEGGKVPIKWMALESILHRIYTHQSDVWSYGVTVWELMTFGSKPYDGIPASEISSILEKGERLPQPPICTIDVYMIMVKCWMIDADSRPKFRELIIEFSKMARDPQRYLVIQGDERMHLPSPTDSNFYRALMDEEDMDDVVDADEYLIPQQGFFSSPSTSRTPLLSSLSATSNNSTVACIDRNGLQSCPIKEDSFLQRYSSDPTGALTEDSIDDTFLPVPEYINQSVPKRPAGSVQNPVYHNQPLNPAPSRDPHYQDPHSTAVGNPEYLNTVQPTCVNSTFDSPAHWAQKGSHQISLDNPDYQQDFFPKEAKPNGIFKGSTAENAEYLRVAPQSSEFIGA

Regarding `CN(C)CC1(O)CCN(c2cc(Nc3ccnc(-c4cnn(S(=O)(=O)C5CC5)c4)n3)ncc2C#Cc2cnn(C3CC3)c2)CC1` [Example 316, 1-(5-((1-Cyclopropyl-1H-pyrazol-4-yl)ethynyl)-2-((2-(1-(cyclopropylsulfonyl)-1H-pyrazol-4-yl)pyrimidin-4-yl)amino)pyridin-4-yl)-4-((dimethylamino)methyl)piperidin-4-ol], the IC50 was greater than 10000 nM at EGFR wildtype (WT) (IC50 WT (nM), 100 μM ATP); 56.7 nM against EGFR Del19/C797S (setting [1]); 72.8 nM on EGFR L858R/C797S (setting [2]); 4.7 nM against EGFR Del19/T790M/C797S (setting [3]); 5.8 nM at EGFR L858R/T790M/C797S (setting [4]).
Turning to `CC1(O)CCN(c2cc(Nc3ccnc(-c4cnn(S(=O)(=O)C5CC5)c4)n3)ncc2C#CC2CCO[C@H]2C(F)(F)F)CC1` (stereo partly drawn) [Example 417, 1-(2-((2-(1-(Cyclopropylsulfonyl)-1H-pyrazol-4-yl)pyrimidin-4-yl)amino)-5-(((2R)-2-(trifluoromethyl)tetrahydrofuran-3-yl)ethynyl)pyridin-4-yl)-4-methylpiperidin-4-ol], the IC50 on EGFR wildtype (WT) (IC50 WT (nM), 100 μM ATP) was greater than 10000 nM; on EGFR wildtype (WT) (setting [5]), 96.1 nM; on EGFR Del19/C797S (setting [1]), 7.9 nM; at EGFR Del19/C797S (setting [6]) it was 7 nM; against EGFR L858R/C797S (setting [2]), 157 nM; at EGFR L858R/C797S (setting [7]), 30.7 nM. In addition, the IC50 at EGFR Del19/T790M/C797S (setting [3]) worked out at 1.6 nM; on EGFR Del19/T790M/C797S (setting [8]) it was 1.5 nM; against EGFR L858R/T790M/C797S (setting [4]), 2.6 nM; at EGFR L858R/T790M/C797S (setting [9]), 0.8 nM.
`O=S(=O)(C1CC1)n1cc(-c2nccc(Nc3cc(N[C@H]4CC[C@@H](O)CC4)c(C#Cc4ccsc4)cn3)n2)cn1` [Example 217, (1s,4s)-4-((2-((2-(1-(Cyclopropylsulfonyl)-1H-pyrazol-4-yl)pyrimidin-4-yl)amino)-5-(thiophen-3-ylethynyl)pyridin-4-yl)amino)cyclohexan-1-ol]: the IC50 was greater than 10000 nM on EGFR wildtype (WT) (IC50 WT (nM), 100 μM ATP); 28.3 nM on EGFR Del19/C797S (setting [1]); 238 nM against EGFR L858R/C797S (setting [2]); 2.6 nM against EGFR Del19/T790M/C797S (setting [3]); 14.5 nM at EGFR L858R/T790M/C797S (setting [4]).
In the case of `Cn1cc(C#Cc2cnc(Nc3ccnc(-c4cnn(S(=O)(=O)C5CC5)c4)n3)cc2N[C@H]2CC[C@@H](O)CC2)cn1` [Example 41, (1s, 4s)-4-((2-((2-(1-(Cyclopropylsulfonyl)-1H-pyrazol-4-yl)pyrimidin-4-yl)amino)-5-((1-methyl-1H-pyrazol-4-yl)ethynyl)pyridin-4-yl)amino)cyclohexan-1-ol], the IC50 against EGFR wildtype (WT) (IC50 WT (nM), 100 μM ATP) is greater than 10000 nM; on EGFR wildtype (WT) (Km ATP, read-out: IC50 WT (nM) Km ATP) it was 23.8 nM; at EGFR Del19/C797S (setting [1]), 2.8 nM; on EGFR Del19/C797S (Km ATP, read-out: IC50 Del19/C797S (nM) Km ATP), 1.3 nM; against EGFR L858R/C797S (setting [2]) it was 10 nM; on EGFR L858R/C797S (Km ATP, read-out: IC50 L858R/C797S (nM) Km ATP), 1.5 nM. The IC50 came to 0.6 nM on EGFR Del19/T790M/C797S (setting [3]); 0.5 nM on EGFR Del19/T790M/C797S (Km ATP, read-out: IC50 Del19/T790M/C797S (nM) Km ATP); 0.8 nM against EGFR L858R/T790M/C797S (setting [4]); 0.2 nM at EGFR L858R/T790M/C797S (Km ATP, read-out: IC50 L858R/T790M/C797S (nM) Km ATP).
As to `O=S(=O)(C1CC1)N1CCC(C#Cc2cnc(Nc3ccnc(-c4cnn(S(=O)(=O)C5CC5)c4)n3)cc2N[C@H]2CC[C@@H](O)CC2)CC1` [Example 391, (1s,4s)-4-((2-((2-(1-(Cyclopropylsulfonyl)-1H-pyrazol-4-yl)pyrimidin-4-yl)amino)-5-((1-(cyclopropylsulfonyl)piperidin-4-yl)ethynyl)pyridin-4-yl)amino)cyclohexan-1-ol], the IC50 on EGFR wildtype (WT) (IC50 WT (nM), 100 μM ATP) was greater than 10000 nM; at EGFR wildtype (WT) (setting [5]), 25.6 nM; against EGFR Del19/C797S (setting [1]), 5.1 nM; at EGFR Del19/C797S (setting [6]) it was 3 nM; against EGFR L858R/C797S (setting [2]) it was 63.4 nM; at EGFR L858R/C797S (setting [7]) it was 19.2 nM. For the same compound, the IC50 against EGFR Del19/T790M/C797S (setting [3]) is 1.3 nM; at EGFR Del19/T790M/C797S (setting [8]) it was 0.6 nM; against EGFR L858R/T790M/C797S (setting [4]) it was 2.1 nM; at EGFR L858R/T790M/C797S (setting [9]), 0.4 nM.
